# Assay results taken from patent publication US12239645B2, “Targeted dosing for the treatment of complement mediated disorders” (Achillion Pharmaceuticals, Inc., priority 2018, dated 2025).
# Values joined by “and” are separate entries in the source; they are usually repeats but may differ in a detail not shown here. Identical values can stand only once.
# Tested on: complement alternative pathway (AP) activity
# Assay: SAD study: ex vivo serum AP hemolysis assay and PK-PD analysis
# Format: in vivo, human
# Conditions: for time approximately 90% or greater inhibition maintained after dosing: AP hemolysis
# Procedure: For human serum preparation, venous blood was collected by standard clinical procedures into a Gold Top, SST vacutainer (BD Vacutainer). After clotting at room temperature for 30 minutes or longer, the tube was centrifuged at ˜1,300×g at 4° C. for 15 minutes to separate the serum from the clot. Serum was then aliquotted into pre-chilled cryovials (50-200 μl/vial) for storage at ˜80° C. Each vial was thawed only once and used for each complement related assay, the remaining sample was discarded without further usage. For preparation of plasma, venous blood was collected into a Lavender Top, K2EDTA vacutainer and gently inverted several times to allow for complete mixing of the blood sample with the anticoagulant. The tube was placed in an ice-bath for 30 minutes and then centrifuged for 15 minutes at ˜1300×g at 4° C. to separate the plasma from the blood cells. Plasma was divided into aliquots in pre-chilled cryogenic storage tubes and stored at a ˜80° C. freezer within one hour of having collected the blood sample. For delivery, tubes containing either serum or plasma were shipped in the presence of dry ice without additional freeze-thaw cycle.
# Ex vivo serum AP hemolysis assays were conducted in 96-well microtiter plates divided into two parts, one for hemolysis and the other for serum background color subtraction. Briefly, a suspension of rabbit red blood cells (RBCs) was centrifuged at 800×g at 4° C. for 3 minutes and the supernatant was removed to get rid of the RBC debris. The RBC cell pellet was re-suspended gently with pre-chilled gelatin veronal buffer (GVB0) containing 10 mM MgEGTA to a density of 5×10^8 cells/mL. Other controls including buffer, spontaneous rabbit RBC lysis, 100% RBC lysis (in water), and normal serum control were set up alongside the test samples as well. Serum was placed in a 37° C. water-bath until mostly thawed and immediately transferred to ice bath. 20% serum was prepared with GVB0-MgEGTA buffer and kept at ice bath before testing. Reactions were carried out in a 96 well plate by mixing 50 μl of 20% serum with equal volume of GVB0-MgEGTA buffer and then quickly adding 20 μl of RBC suspension. The plate was shaken on a microtiter plate shaker for 5 seconds and then incubated at 37° C. for 30 minutes. Halfway during the incubation period, the plate was shaken for another 5 seconds as described above. At the end of the incubation, the plate was centrifuged at 800×g at 4° C. for 3 minutes to pellet the un-lysed rabbit RBCs. 80 μl of supernatant was removed carefully from all wells and transferred to a clear flat-bottom microtiter plate for the measurement of optical absorbance at 405 nm (A405) in a Molecular Devices Spectramax Plus plate reader. AP hemolysis in each well was calculated relative to the activity of the NHS reference sample formulas as follows: Hemolysis (%)=((Hm−Bk)−(Sp−Bf))/((NH−BkNH)−(Sp−Bf))×100%
# where Hm=A405 in the hemolysis well, Bk=A405 in the corresponding background well, Sp=mean A405 in the spontaneous hemolysis wells, Bf=mean A405 in the buffer alone wells, NH=mean A405 in the reference NHS wells, and BkNH=mean A405 in the corresponding background wells.
# The PK-PD relationship was evaluated using time-matched plasma Compound 1 concentrations and serum AP inhibition values by non-linear regression with GraphPad Prism (La Jolla, CA) using the following two models: • 1. […] Pharmacodynamic and Pharmacokinetic Results AP Activity Measured with AP Hemolysis […]
smiles,measurement,setting,value
"CC(=O)c1nn(CC(=O)N2[C@H](C(=O)Nc3nc(Br)ccc3C)C[C@@]3(C)C[C@@H]23)c2ccc(-c3cnc(C)nc3)cc12 [Compound 1, (1R,3S,5R)-2-(2-(3-acetyl-5-(2-methylpyrimidin-5-yl)-1H-indazol-1-yl)acetyl)-N-(6-bromo-3-methylpyridin-2-yl)-5-methyl-2-azabicyclo[3.1.0]hexane-3-carboxamide]",time approximately 90% or greater inhibition maintained after dosing,"Group 1, 40 mg single dose",at least 4 hours
same,time approximately 90% or greater inhibition maintained after dosing,"Groups 2 and 3, 80 and 120 mg single dose",at least 8 hours
same,EC50,"Homo sapiens, simple Emax model, all SAD dose cohorts, read-out: EC50 (plasma concentration vs serum AP inhibition)",0.0111 µg/mL
same,EC50 (plasma concentration vs serum AP inhibition),"simple Emax model, all SAD dose cohorts",~0.01 µg/mL and 0.011 µg/mL
same,inhibition of AP activity after dosing,"single dose 40, 80 or 120 mg, all groups",complete inhibition
